Laboratory results reported in paper PMC11611271, “Rapid prediction of key residues for foldability by machine learning model enables the design of highly functional libraries with hyperstable constrained peptide scaffolds” (PLOS Computational Biology, 2024).

Legend:
CD8α-Fc = target: T1, CD8α-Fc (Homo sapiens, UniProt P01732); assay: SPR binding to CD8α-Fc; details: folded synthetic peptide; Biacore S200, 25°C, HBS-EP w. 5% DMSO, single-cycle kinetics; kinetic fitting (values not marked *); N.B. = no binding
T1 construct: purchased R&D AVI10927
Description: (§1) Peptide synthesis was done by CSBio (Menlo Park, CA). The linear peptides were synthesized as free N- and C- terminus. For the small-scale in vitro folding test, linear peptides were dissolved in 100% DMSO as 10 mg/ml stock, then 1/20 diluted into folding buffers. Five different buffer conditions were tested: [1] 0.1 M NH4HCO3 pH 9.0, 2 mM reduced glutathione, 0.5 mM oxidized glutathione, and 9% DMSO; [2] 0.1 M NH4HCO3 pH 8.0, 1 mM reduced glutathione, and 55% DMSO; [3] dI-water w. 5% DMSO; [4] 1X PBS pH 7.4 w. 10% DMSO; and [5] 1X PBS pH 7.4 w. 50% DMSO. Refolding was promoted by incubation at R.T. with gentle rotation and monitored by LC-MS for disulfide bond formation. […] Therefore, buffer condition was used as a universal refolding buffer for all HCP peptides. After refolding, peptides with three disulfide bonds were purified by HPLC according to standard procedure and subjected to SPR measurements.
(§2) All binding experiments were performed using a Biacore S200 instrument (GE Healthcare) at 25°C at a flow rate of 30 μl/min in HBS-EP buffer (Cytiva, #BR100188) w. 5% DMSO. The kinetics and affinity measurements were carried out using single-cycle kinetics (SCK) and referenced by subtracting the signal from the blank flow cell. […]

CD8α = assay: phage spot ELISA on CD8α; format: binding
Text: (§3) To determine the performance of the libraries for ligand discovery we chose a panel of eight protein targets, which have no structural homology and a wide mass range (Fig 7C). We screened these eight targets with solution panning strategy and two additional plate panning for CD8α/β and CD28, thus ten panning campaigns in total. We consider clones showing spot phage ELISA signal > 0.3 and signal/noise ratio > 2 as positive hits. At least one binding hit was discovered for nine out of the ten panning campaigns, surpassing the success rate of the best DCP scaffolds reported previously. We also obtained the NGS data for these screening and the ranking of clones for their enrichment along the rounds of screening was analyzed and considered the top-ranking clones as potential hits. Based on their sequence diversity we selected 16 potential hits spanning five protein targets for peptide synthesis in their linear form. Seven of these are hits with positive phage ELISA signal and nine were selected based on NGS ranking without spot ELISA available. Subsequently, we conducted in vitro folding experiments on these peptides in various buffers. We observed a strong propensity for spontaneous folding regardless of the buffer condition. All HCP hits tested successfully folded into three-disulfide-containing product within two days in a universal buffer system (PBS, pH 7.4, 50% DMSO) without the need for a redox pair, as shown in Fig 8A. The binding of these folded peptides to their respective target proteins was confirmed using SPR (Table 4 and S1 Data) and binding kinetics are exemplified by the high-affinity peptide 5ji4-CRD7-2 (see Fig 8B). Among seven selected ELISA-positive hits, all of them were successfully synthesized and in vitro folded with three disulfide bonds and five were proven to be validated binders by SPR (Table 4). Nine peptides selected from the NGS ranking were synthesized and folded with the expected number of disulfide bonds and five of them bound to their target with affinities in the μM range as determined by SPR (Table 4). In general, binding affinities for these SPR-validated initial hits are weak, with Kd values in the micromolar range and fast on- and off-rates. There are two exceptions with binding affinities in the nanomolar range.
(§4) The 5ji4 libraries were constructed following the Kunkel mutagenesis method and the solution panning protocol was followed as previously described. After four to five rounds of binding selection, while eluted pool was subjected to NGS analysis, individual phage clones were also picked and analyzed with phage spot ELISA. Positive clones were subjected to SANGER sequencing.

CD28 = assay: phage spot ELISA on CD28; format: binding
Text: as §3, §4

CD28-Fc = CD28-Fc (Homo sapiens, UniProt P10747); assay: SPR binding to CD28-Fc; design: purchased R&D 342-CD-200; details: folded synthetic peptide; Biacore S200, 25°C, HBS-EP w. 5% DMSO, single-cycle kinetics; kinetic fitting (values not marked *); N.B. = no binding
Description: as §1, §2

Fz7CRD-Fc = target: T2, Fz7CRD-Fc (Homo sapiens, UniProt O75084); assay: SPR binding to Fz7CRD-Fc; details: folded synthetic peptide; Biacore S200, 25°C, HBS-EP w. 5% DMSO, single-cycle kinetics; kinetic fitting (values not marked *); N.B. = no binding
T2 construct: Fz7CRD-Fc (R&D, #6178-FZ-50); purchased R&D 6178-FZ-50

human full-length HtrA1 = human full-length HtrA1 (human, UniProt Q92743 23-480); assay: cell-based or functional assay
HtrA1^PD-S/A = target: T3, HtrA1^PD-S/A (human, UniProt Q92743 161-379, S328A); assay: SPR; Biacore S200, HtrA1^PD-S/A on Series S Sensor Chip SA, peptide flowed, 25°C, 30 μl/min, HBS-EP with 5% DMSO; fit model not told for these values; details: both partners purified
T3 construct: serine protease HtrA1, D161-K379 with S328A; source: E. coli, produced in-house (Genentech)

VEGF_(8-109) = VEGF_(8-109) (UniProt P15692); assay: SPR; Biacore S200, target on Series S Sensor Chip SA, peptide flowed, single-cycle kinetics, three-fold dilution series from approximately 100 μM, 25°C, 30 μl/min, HBS-EP with 5% DMSO; steady-state equilibrium model
RSP02-Fc = target: T4, RSP02-Fc (UniProt Q6UXX9 22-243); assay: SPR; Biacore S200, Fc-fusion target on Sensor Chip Protein A, peptide flowed, single-cycle kinetics, three-fold dilution series from approximately 100 μM, 25°C, 30 μl/min, HBS-EP with 5% DMSO; 1:1 binding (kinetic) model, or no binding seen; details: both partners purified
T4 construct: bought as Fc fusion; captured on a Protein A sensor chip by its Fc; source: bought: Biolegend, #786206

[1] = phage spot ELISA of the clone, positive hit: signal > 0.3 and signal/noise > 2
[2] = phage spot ELISA signal/noise ratio

T1 sequence (P01732 22-182 limits assumed): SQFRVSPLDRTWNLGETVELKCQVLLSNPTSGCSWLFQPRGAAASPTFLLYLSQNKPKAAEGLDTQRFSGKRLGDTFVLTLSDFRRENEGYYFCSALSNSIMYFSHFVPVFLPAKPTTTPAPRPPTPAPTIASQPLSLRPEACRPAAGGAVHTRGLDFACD
Chain of human full-length HtrA1 (Q92743 23-480): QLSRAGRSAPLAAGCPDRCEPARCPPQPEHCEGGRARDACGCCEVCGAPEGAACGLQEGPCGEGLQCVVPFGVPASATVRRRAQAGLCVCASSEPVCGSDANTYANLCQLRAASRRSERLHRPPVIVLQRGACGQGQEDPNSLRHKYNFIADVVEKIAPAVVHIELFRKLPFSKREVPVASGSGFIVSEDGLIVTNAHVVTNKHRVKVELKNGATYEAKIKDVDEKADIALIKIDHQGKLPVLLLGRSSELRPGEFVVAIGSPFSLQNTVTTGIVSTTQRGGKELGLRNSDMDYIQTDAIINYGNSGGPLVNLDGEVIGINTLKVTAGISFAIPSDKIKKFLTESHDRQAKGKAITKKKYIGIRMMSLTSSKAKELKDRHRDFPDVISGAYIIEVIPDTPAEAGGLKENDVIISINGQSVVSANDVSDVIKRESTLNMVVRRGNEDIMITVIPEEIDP
Chain of CD28-Fc (P10747 19-152 limits assumed): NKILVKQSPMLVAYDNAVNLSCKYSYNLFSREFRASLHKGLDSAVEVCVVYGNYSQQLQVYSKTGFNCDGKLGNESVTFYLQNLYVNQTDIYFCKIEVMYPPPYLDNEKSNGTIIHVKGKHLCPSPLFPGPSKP
T4 sequence (Q6UXX9 22-243): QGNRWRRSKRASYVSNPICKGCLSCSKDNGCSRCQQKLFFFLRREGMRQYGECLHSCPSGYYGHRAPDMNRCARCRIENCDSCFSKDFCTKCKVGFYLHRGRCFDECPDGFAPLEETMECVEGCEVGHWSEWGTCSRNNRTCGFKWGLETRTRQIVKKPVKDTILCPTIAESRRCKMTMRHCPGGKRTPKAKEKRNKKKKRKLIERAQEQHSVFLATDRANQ
T3 sequence (Q92743 161-379 S328A): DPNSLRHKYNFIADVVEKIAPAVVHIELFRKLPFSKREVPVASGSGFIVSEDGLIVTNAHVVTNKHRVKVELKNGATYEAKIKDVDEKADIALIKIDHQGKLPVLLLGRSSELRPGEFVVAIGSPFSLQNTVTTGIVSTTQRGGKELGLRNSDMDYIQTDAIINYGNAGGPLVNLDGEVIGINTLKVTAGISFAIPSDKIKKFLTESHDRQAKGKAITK

P C D C DVNGETYTVSSSEE C EPL C LNWLSSL C RVH C G (bicyclic or more) [5ji4-CD8-16, 5JI4 library hit for CD8α, synthesized and folded in vitro]
SPR Kd (CD8α-Fc): N.B.
ELISA signal (CD8α; [1]): 3.43
ELISA s/n (CD8α; [2]): 37.34

P C E C DVNGETYTVSSSEG C ERL C SWDQGKW C RVH C G (bicyclic or more) [5ji4-CD28-7, 5JI4 library hit for CD28, synthesized and folded in vitro]
ELISA signal (CD28; [1]): 0.25
ELISA s/n (CD28; [2]): 3.48
SPR Kd (CD28-Fc): N.B.

P C E C LVTPYKDDYKSSEE C ERL C RKLGVTN C RVH C G (bicyclic or more) [5ji4-CD8-8, 5JI4 library hit for CD8α, synthesized and folded in vitro]
SPR Kd (CD8α-Fc): N.B.

P C E C PIRPYGVPVKSSEE C ERL C MNDWATT C RVH C G (bicyclic or more) [5ji4-CRD7-5, 5JI4 library hit for CRD7, synthesized and folded in vitro]
SPR Kd (Fz7CRD-Fc): N.B.

PCECTILRGWHFLTSSAECERLCRKLGVTNCRVHCG
inhibition of HtrA1 enzyme activity (cleavage of the fluorescence-quenched substrate H2-OPT), IC50 (human full-length HtrA1): 38 µM

B1: 5ji4-A7 (peptide)
chain: H-PCECTILRGWHFLTSSAECERLCRKLGVTNCRVHCG-OH
modifications: disulfide (positions not given here); also: three disulfide bonds, pairing not given here
Kd (HtrA1^PD-S/A): 2.72 µM

PCECFMYDILVGLASSEECKRLCWGFGQSDCRVHCG [5ji4-VEGF-5]
Kd (VEGF_(8-109)): 86 µM

B2: 5ji4-RSP-1 (peptide)
chain: PCECDVNGETYTVSSSEECEPLCWMYNEHFCRVHCG
notes: hit from the 5JI4 scaffold phage libraries; free N- and C-termini; three disulfide bonds; source: synthetic peptide (CSBio), folded in vitro, HPLC purified
Kd (RSP02-Fc): 22 ± 17 µM
